What was measured:
LRRK2 G2019S [1] = molecular target: T1, LRRK2 G2019S (Homo sapiens, UniProt Q5S007, G2019S); experiment: In vitro biochemical LRRK2 TR-FRET activity assay; conditions: for IC50: LRRK2 G2019S, ATP 134 µM (Km,app), LRRKtide substrate, three independent experiments, read-out: Biochemical LRRK2 assay IC50 +/- SD
Protocol: The Biochemical LRRK2 TR-FRET activity assay was performed according to the manufacture recommended assay protocol (Life Technologies). […] After incubation at room temperature for 1 hour, the kinase reactions were stopped by addition of 10 µL of 20 mM EDTA and 4 nM Tb-anti-pERM (pLRRKtide) antibody in TR-FRET dilution buffer (Life Technologies). After a 30 minute incubation at room temperature, TR-FRET measurements were obtained on a BMG PHERAstar plate reader using LanthaScreen® filters and settings. A 16 point, 2-fold dilution series of each compound was tested in triplicate at each concentration and assays were also performed in triplicate.

LRRK2 G2019S [2] = molecular target: T1, LRRK2 G2019S; experiment: TR-FRET cellular assay for LRRK2 Ser935 phosphorylation, SH-SY5Y cells, BacMam LRRK2-GFP G2019S (incl. Tocriscreen Mini library screen and follow-up); assay type: cell-based; parameters: This high-throughput assay utilizes cells expressing full-length human LRRK2 with a C-terminal GFP tag (LRRK2-GFP); host or cells: SH-SY5Y cells transduced with BacMam; conditions: for Cellular TR-FRET Assay Max % Inhibition: 90 min; for IC50: three independent experiments
Protocol: (§1) U-2 OS cells are maintained in growth medium (McCoy’s 5A supplemented with 10% dialyzed FBS (dFBS), 10 mM HEPES, 0.1 mM NEAA, 1 mM Sodium Pyruvate, and 100 U/mL Penicillin/100 µg/mL Streptomycin). HEK293T cells are maintained in DMEM with 10% dFBS, 10 mM HEPES, 0.1 mM NEAA and 100 U/mL Penicillin/100 µg/mL Streptomycin. SH-SY5Y cells are maintained in DMEM/F-12 medium supplemented with 10% dFBS and 100 U/mL Penicillin/100 µg/mL Streptomycin. […] GIBCO® human neural stem cells (hNSCs) were propagated as an adherent culture in StemPro® NSC SFM according to the manufacturer’s recommended protocol (Life Technologies). For BacMam transduction of U-2 OS and HEK293T, cells were harvested, mixed with various amounts of BacMam LRRK2-GFP reagent (v/v) and plated onto 6-well plates. […] Cells were assayed in 384-well format (∼20,000 cells/well) 48 hours post-transduction as above.
(§2) Transduced cells in the 384-well assay plate were incubated with indicated inhibitors (5X, 5 µL/well) for 60 to 90 minutes. During this time, 6 X lysis buffer (Life Technologies) was supplemented with 30 nM Tb-labeled anti-LRRK2 pSer935 antibody and both protease and phosphatase inhibitor cocktails (Sigma). The complete 6 X lysis buffer was added to each well (5 µL/well) and the plates were incubated at room temperature in the dark for 2 hours. […] A sigmoidal dose-response equation with varying slope was used to fit the data and generate IC50 values. Z′-factor values were calculated as: Z′-factor = 1 - [(3 × stdevno virus +3 × stdevmaxvirus)/(avgmaxvirus – avgno-virus)]. The IC50 values reported in Table 1 are the averaged numbers from three independent experiments.
40 nL of 10 mM Tocris library compounds in DMSO were dispensed into each well of the assay plate by the ECHO system. Equal volumes of DMSO were dispensed into the control wells. Cells were incubated with compounds for 90 to 120 min prior to cell lysis and detection as described above. The percent inhibition is calculated as: [(average emission ratios of DMSO control wells – average emission ratios of compound wells)/(average emission ratios of DMSO control wells – average emission ratios of LRRK2-IN-1 treated wells)] * 100. For the dose-response follow-up studies, fresh compound DMSO stock solutions were prepared from powder. […] Z′-factor value was calculated as: Z′-factor = 1 - [(3 × stdevLRRK2-IN-1+3 × stdevDMSO)/(avgDMSO – avgLRRK2-IN-1)]. The IC50 values reported in Table 2 are the averaged numbers from three independent experiments for both cellular and biochemical TR-FRET assays and one representative result of two independent experiments for the cytotoxicity assay.

[3] = system: SH-SY5Y cells expressing LRRK2-GFP G2019S; experiment: Cytotoxicity assay (resazurin-based cell viability); conditions: read-out: Cytotoxicity Assay IC50; same conditions as TR-FRET follow-up; one representative of two experiments
GFP-LRRK2 G2019S = molecular target: T2, GFP-LRRK2 G2019S (Homo sapiens, UniProt Q5S007, G2019S); experiment: Immunoprecipitation/Western analysis of LRRK2 phosphorylation at Ser910, Ser935, Ser955, Ser973 in HEK293 T-REx GFP-LRRK2 G2019S cells; assay type: cell-based; conditions: for effect on phosphorylation of Ser910, Ser935, Ser955 and Ser973 (IP-Western): 20 µM, 90 min, HEK293 GFP-LRRK2 G2019S, Figure 6
T2 construct: expressed in transfected cells
T2 sequence (Q5S007 whole entry G2019S): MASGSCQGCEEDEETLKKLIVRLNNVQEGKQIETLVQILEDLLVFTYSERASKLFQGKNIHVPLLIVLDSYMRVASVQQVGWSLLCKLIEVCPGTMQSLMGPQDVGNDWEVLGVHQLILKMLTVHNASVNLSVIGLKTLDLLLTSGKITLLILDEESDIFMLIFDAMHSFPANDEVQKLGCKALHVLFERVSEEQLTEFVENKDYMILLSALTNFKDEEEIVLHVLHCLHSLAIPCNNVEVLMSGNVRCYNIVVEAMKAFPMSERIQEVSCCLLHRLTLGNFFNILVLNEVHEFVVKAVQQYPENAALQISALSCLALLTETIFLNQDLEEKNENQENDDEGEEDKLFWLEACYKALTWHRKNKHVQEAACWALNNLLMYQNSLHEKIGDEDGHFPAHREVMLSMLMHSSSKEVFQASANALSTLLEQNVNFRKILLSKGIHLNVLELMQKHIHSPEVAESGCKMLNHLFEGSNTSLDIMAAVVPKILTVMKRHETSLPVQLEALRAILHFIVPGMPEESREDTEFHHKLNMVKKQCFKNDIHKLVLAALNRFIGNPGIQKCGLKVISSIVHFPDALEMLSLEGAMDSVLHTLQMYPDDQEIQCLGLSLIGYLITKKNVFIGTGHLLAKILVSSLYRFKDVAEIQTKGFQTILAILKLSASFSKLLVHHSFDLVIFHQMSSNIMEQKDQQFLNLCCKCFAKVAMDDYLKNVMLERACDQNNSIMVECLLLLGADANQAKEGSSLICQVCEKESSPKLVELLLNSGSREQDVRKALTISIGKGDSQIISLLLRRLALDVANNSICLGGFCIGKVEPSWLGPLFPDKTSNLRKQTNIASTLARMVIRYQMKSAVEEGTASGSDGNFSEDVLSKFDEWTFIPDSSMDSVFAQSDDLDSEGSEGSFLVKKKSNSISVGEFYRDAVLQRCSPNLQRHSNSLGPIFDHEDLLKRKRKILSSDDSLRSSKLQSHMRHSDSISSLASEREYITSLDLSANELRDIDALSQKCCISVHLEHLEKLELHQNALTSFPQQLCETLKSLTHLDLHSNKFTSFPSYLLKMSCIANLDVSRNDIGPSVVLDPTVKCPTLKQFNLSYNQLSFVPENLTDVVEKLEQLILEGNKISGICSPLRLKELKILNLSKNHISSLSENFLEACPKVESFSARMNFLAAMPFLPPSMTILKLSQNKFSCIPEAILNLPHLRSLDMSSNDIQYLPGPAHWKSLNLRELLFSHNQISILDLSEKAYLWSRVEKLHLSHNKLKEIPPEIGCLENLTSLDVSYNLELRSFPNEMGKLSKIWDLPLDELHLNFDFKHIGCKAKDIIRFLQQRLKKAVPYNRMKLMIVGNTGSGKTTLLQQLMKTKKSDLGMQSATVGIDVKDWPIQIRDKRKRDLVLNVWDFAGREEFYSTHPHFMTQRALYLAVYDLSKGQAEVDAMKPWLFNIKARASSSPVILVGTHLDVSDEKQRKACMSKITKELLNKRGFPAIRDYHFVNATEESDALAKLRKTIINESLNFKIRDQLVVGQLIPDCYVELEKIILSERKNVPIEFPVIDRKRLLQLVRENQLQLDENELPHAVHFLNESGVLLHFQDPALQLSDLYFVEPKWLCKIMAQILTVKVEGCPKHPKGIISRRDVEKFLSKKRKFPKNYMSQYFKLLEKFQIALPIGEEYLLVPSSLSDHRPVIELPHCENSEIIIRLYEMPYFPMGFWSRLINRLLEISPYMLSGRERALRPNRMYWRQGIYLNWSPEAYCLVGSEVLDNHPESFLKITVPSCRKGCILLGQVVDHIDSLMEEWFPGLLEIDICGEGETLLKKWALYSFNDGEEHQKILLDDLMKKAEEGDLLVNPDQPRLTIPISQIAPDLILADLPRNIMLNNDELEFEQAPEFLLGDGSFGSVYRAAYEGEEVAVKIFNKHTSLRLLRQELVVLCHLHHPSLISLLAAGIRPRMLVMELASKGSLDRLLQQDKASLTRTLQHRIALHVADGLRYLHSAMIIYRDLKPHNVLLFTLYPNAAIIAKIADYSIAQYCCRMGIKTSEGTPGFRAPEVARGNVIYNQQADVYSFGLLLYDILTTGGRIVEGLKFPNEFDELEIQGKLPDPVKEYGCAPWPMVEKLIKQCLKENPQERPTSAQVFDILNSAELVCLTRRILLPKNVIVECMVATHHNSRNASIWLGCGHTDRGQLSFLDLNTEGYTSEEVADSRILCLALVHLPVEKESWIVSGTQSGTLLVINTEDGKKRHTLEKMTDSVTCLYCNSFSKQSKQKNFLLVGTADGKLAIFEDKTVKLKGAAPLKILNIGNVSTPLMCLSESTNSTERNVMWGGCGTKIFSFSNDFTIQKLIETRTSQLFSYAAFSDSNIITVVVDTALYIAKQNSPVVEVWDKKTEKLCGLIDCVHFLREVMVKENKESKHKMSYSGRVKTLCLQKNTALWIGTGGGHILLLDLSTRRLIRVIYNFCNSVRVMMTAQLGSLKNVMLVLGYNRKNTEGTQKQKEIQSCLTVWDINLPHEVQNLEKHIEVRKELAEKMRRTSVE
Protocol: (§3) Immunoblot analysis: BacMam LRRK2-GFP transduced U-2 OS or SH-SY5Y cells (10^7 cells) were left untreated or treated with 3 µM LRRK2-IN-I for 90 min. For lysate preparation, the cells were washed once with ice-cold PBS and lysed by addition of ice-cold lysis buffer (20 mM Tris-HCl, pH 7.4, 1% NP-40, 5 mM EDTA, 5 mM NaF, 150 mM NaCl, and 1∶100 of protease and phosphatase inhibitor cocktails). The lysate was cleared of debris by centrifugation. Equal amount of total protein was loaded onto each lane for SDS-PAGE (3–8% Tris Acetate). The proteins were transferred onto nitrocellulose membrane using the iBLOT® dry blotting system (Life Technologies) according to manufacturer’s protocol. The membranes were blocked and incubated with a primary antibody against LRRK2 (Cell Signaling Technologies), followed by incubation with alkaline phosphatase-conjugated secondary antibody (WesternBreeze® chromogenic Kit, Life Technologies). The blot was developed by using the chromogenic BCIP/NBT substrate (WesternBreeze® chromogenic Kit, Life Technologies). […] Two days post induction, cells were treated for 90 minutes in the presence of 20 µM of compound or DMSO vehicle control. Cells were rapidly lysed in ice cold lysis buffer 50 mM Tris/HCl, pH 7.5, 1 mM EGTA, 1 mM EDTA, […] 1 mM sodium orthovanadate, 10 mM sodium beta-glycerolphosphate, 50 mM NaF, 5 mM sodium pyrophosphate, 0.27 M sucrose, 1 mM benzamidine and 2 mM phenylmethanesulphonylfluoride (PMSF) and one tablet each complete protease inhibitor and PhosSTOP phosphatase inhibitor (Roche) and was supplemented with 1% (v/v) Triton X-100. GFP-LRRK2 was immunoprecipitated with GFP nanotrap beads (ChromoTek). Immunecomplexes were washed twice with lysis buffer supplemented with 300 mM NaCl and once with Buffer A (50 mM Tris/HCl, pH 7.5, 50 mM NaCl, 0.1 mM EGTA and 0.1% (v/v) 2-mercaptoethanol, and 0.27 M sucrose).

LRRK2 A2016T/G2019S = molecular target: T3, LRRK2 A2016T/G2019S (Homo sapiens, UniProt Q5S007, A2016T/G2019S); experiment: Immunoprecipitation/Western analysis of LRRK2 phosphorylation in T-REx HEK293 cells expressing inhibitor desensitizing mutant; assay type: cell-based; conditions: for effect of desensitizing mutation A2016T/G2019S on compound-induced dephosphorylation (IP-Western): 20 µM, Figure 6 IRM
T3 construct: expressed in transfected cells
T3 sequence (Q5S007 whole entry A2016T/G2019S): as the sequence (Q5S007 whole entry G2019S) above, with A2016T counted along it
Protocol: as §3

LRRK2 wild-type [4] = molecular target: T4, LRRK2 wild-type (Homo sapiens, UniProt Q5S007); experiment: TR-FRET cellular assay for LRRK2 Ser935 phosphorylation, HEK293T cells, BacMam LRRK2-GFP wild-type; parameters: This high-throughput assay utilizes cells expressing full-length human LRRK2 with a C-terminal GFP tag (LRRK2-GFP); host or cells: HEK293T cells transduced with BacMam; conditions: WT, +/- SD, three independent experiments, * = partial inhibition, read-out: IC50, TR-FRET cell-based assay for Ser935 phosphorylation of LRRK2
T4 sequence (Q5S007 whole entry): as the sequence (Q5S007 whole entry G2019S) above, with S2019G counted along it
Protocol: as §1, §2

LRRK2 G2019S [5] = molecular target: T1, LRRK2 G2019S; experiment: TR-FRET cellular assay for LRRK2 Ser935 phosphorylation, HEK293T cells, BacMam LRRK2-GFP G2019S; parameters: This high-throughput assay utilizes cells expressing full-length human LRRK2 with a C-terminal GFP tag (LRRK2-GFP); host or cells: HEK293T cells transduced with BacMam; conditions: +/- SD, three independent experiments, * = partial inhibition, read-out: IC50, TR-FRET cell-based assay for Ser935 phosphorylation of LRRK2
Protocol: as §1, §2

LRRK2 wild-type [6] = molecular target: T4, LRRK2 wild-type; experiment: TR-FRET cellular assay for LRRK2 Ser935 phosphorylation, SH-SY5Y cells, BacMam LRRK2-GFP wild-type; assay type: cell-based; parameters: This high-throughput assay utilizes cells expressing full-length human LRRK2 with a C-terminal GFP tag (LRRK2-GFP); host or cells: SH-SY5Y cells transduced with BacMam; conditions: WT, +/- SD, three independent experiments, * = partial inhibition, read-out: IC50, TR-FRET cell-based assay for Ser935 phosphorylation of LRRK2
Protocol: as §1, §2

LRRK2 wild-type [7] = molecular target: T4, LRRK2 wild-type; experiment: TR-FRET cellular assay for LRRK2 Ser935 phosphorylation, U-2 OS cells, BacMam LRRK2-GFP wild-type; assay type: cell-based; parameters: This high-throughput assay utilizes cells expressing full-length human LRRK2 with a C-terminal GFP tag (LRRK2-GFP); host or cells: U-2 OS cells transduced with BacMam; conditions: WT, +/- SD, three independent experiments, * = partial inhibition, read-out: IC50, TR-FRET cell-based assay for Ser935 phosphorylation of LRRK2
Protocol: as §1, §2

LRRK2 G2019S [8] = molecular target: T1, LRRK2 G2019S; experiment: TR-FRET cellular assay for LRRK2 Ser935 phosphorylation, U-2 OS cells, BacMam LRRK2-GFP G2019S; assay type: cell-based; parameters: This high-throughput assay utilizes cells expressing full-length human LRRK2 with a C-terminal GFP tag (LRRK2-GFP); host or cells: U-2 OS, SH-SY5Y, HEK293T cells or human neural stem cells transduced with BacMam; conditions: G2019S, +/- SD, three independent experiments, * = partial inhibition, read-out: IC50, TR-FRET cell-based assay for Ser935 phosphorylation of LRRK2
Protocol: as §1, §2

[9] = system: LRRK2 Ser935 phosphorylation; experiment: TR-FRET cellular assay for LRRK2 Ser935 phosphorylation (cell background not given); assay type: cell-based, human; conditions: result in words
Protocol: Transduced cells in the 384-well assay plate were incubated with indicated inhibitors (5X, 5 µL/well) for 60 to 90 minutes. During this time, 6 X lysis buffer (Life Technologies) was supplemented with 30 nM Tb-labeled anti-LRRK2 pSer935 antibody and both protease and phosphatase inhibitor cocktails (Sigma). The complete 6 X lysis buffer was added to each well (5 µL/well) and the plates were incubated at room temperature in the dark for 2 hours. The plate was then read on an EnVision® multilabel plate reader (PerkinElmer, Waltham, MA) with excitation at 340 nm and emission 520 nm and 495 nm. […]. A sigmoidal dose-response equation with varying slope was used to fit the data and generate IC50 values. […]. The IC50 values reported in Table 1 are the averaged numbers from three independent experiments.

[10] = Cytotoxicity assay (resazurin-based cell viability); conditions: human
[11] = Tocriscreen Mini library screen, 20 µM, SH-SY5Y G2019S, relative to LRRK2-IN-1 control
[12] = dose-response follow-up, SH-SY5Y G2019S
[13] = dose-response follow-up, SH-SY5Y G2019S, read-out: Cellular TR-FRET Assay IC50 +/-SD
[14] = SH-SY5Y, G2019S, +/- SD, * = partial inhibition, read-out: IC50, TR-FRET cell-based assay for Ser935 phosphorylation of LRRK2

T1 sequence (Q5S007 whole entry G2019S): as the sequence (Q5S007 whole entry G2019S) above

Structure (SMILES)	IC50 (LRRK2 G2019S [1])	effect on LRRK2 activity in vitro (LRRK2 G2019S [1]; result in words)	%Inhibition Initial screen (LRRK2 G2019S [2]; [11])	Cellular TR-FRET Assay Max % Inhibition (LRRK2 G2019S [2]; [12])	IC50 (LRRK2 G2019S [2]; [13])	IC50 [3]	effect on phosphorylation of Ser910, Ser935, Ser955 and Ser973 (IP-Western) (GFP-LRRK2 G2019S)	LRRK2 phosphorylation remaining, % of untreated G2019S (GFP-LRRK2 G2019S; 293 cells, LRRK2 G2019S)	effect of desensitizing mutation A2016T/G2019S on compound-induced dephosphorylation (IP-Western) (LRRK2 A2016T/G2019S)	LRRK2 phosphorylation remaining, % of untreated G2019S (LRRK2 A2016T/G2019S; 293 cells, LRRK2 G2019S/A2016T)	IC50 (LRRK2 G2019S [2]; [14])	IC50 (LRRK2 wild-type [4])	IC50 (LRRK2 G2019S [5])	IC50 (LRRK2 wild-type [6])	IC50 (LRRK2 wild-type [7])	IC50 (LRRK2 G2019S [8])	effect on the phosphorylation of Ser935 in the TR-FRET cellular assay [9]	inhibition at 20 µM (LRRK2 G2019S [2]; SH-SY5Y, Tocriscreen Mini library screen, 20 µM, SH-SY5Y G2019S, relative to LRRK2-IN-1 control, read-out: %Inhibition Initial screen)	IC50 [10]
Cc1ccc(S(=O)(=O)/C=C/C#N)cc1 [Bay 11-7821]	> 100000 nM	did not repress LRRK2 activity in vitro	85.5%	94%	4000 nM	20000 nM	moderately reduced phosphorylation of all four residues	50%	did not appear to be changed	50%	–	–	–	–	–	–	–	–	–
Cc1cncc2cccc(S(=O)(=O)N3CCCNC[C@@H]3C)c12 [H-1152]	–	–	–	–	–	–	–	–	–	–	770 nM	2940 nM	1380 nM	1660 nM	3280 nM	890 nM	–	–	–
O=S(=O)(NCCNC/C=C/c1ccc(Br)cc1)c1cccc2cnccc12 [H-89]	–	–	–	–	–	–	–	–	–	–	> 20000 nM	–	–	> 20000 nM	> 20000 nM	> 20000 nM	no effect	–	–
O=C1Nc2ccc(I)cc2/C1=C/c1cc(Br)c(O)c(Br)c1 [GW5074]	–	–	–	–	–	–	–	–	–	–	> 20000 nM	> 20000 nM	280 nM	> 20000 nM	> 20000 nM	470 nM	–	–	–
Cn1cc(/C=C2\C(=O)Nc3cccnc32)c2ccccc21 [GW 441756]	320 nM	–	69.7%	72%	2200 nM	> 20000 nM	inhibited phosphorylation of Ser910, Ser935, Ser955 and Ser973	–	rescued phosphorylation	–	–	–	–	–	–	–	–	–	–
Oc1c2ccccc2c2c3c(cccc13)N=N2 [SP 600125]	220 nM	–	88.3%	103%	1000 nM	–	inhibited phosphorylation of Ser910, Ser935, Ser955 and Ser973	–	–	–	–	–	–	–	–	–	–	88%	> 20000 nM

— article PMC3429506, “Screening for Novel LRRK2 Inhibitors Using a High-Throughput TR-FRET Cellular Assay for LRRK2 Ser935 Phosphorylation” (PLoS ONE, 2012)
